Several values for one entry are separate records, joined by “and”; a condition that tells them apart may be missing. Identical values can stand only once.
Legend:
AChE [1] = target: T1, AChE (Cavia porcellus, UniProt D3YE96); details: guinea pig, in vivo
AChE [2] = target: AChE (Homo sapiens, UniProt P22303); type: biochemical
BChE [3] = target: BChE (Homo sapiens, UniProt P06276); type: biochemical
BChE [4] = target: BChE (Rattus norvegicus, UniProt Q9JKC1); type: biochemical, Sprague Dawley rat
AChE [5] = target: AChE (Macaca mulatta, UniProt A0A5F7ZPE9); type: biochemical, Rhesus monkey
BChE [6] = type: biochemical, Rhesus monkey
AChE [7] = target: AChE (Rattus norvegicus, UniProt P37136); type: biochemical, Sprague Dawley rat
AChE [8] = target: T1, AChE; type: biochemical, Hartley guinea pig
BChE [9] = target: T2, BChE (Cavia porcellus, UniProt H0V4F8); type: biochemical, Hartley guinea pig
BChE [10] = target: T2, BChE; type: biochemical, Hartley guinea pig; remark: listed apart in the source
AChE [11] = target: T1, AChE; type: biochemical, Hartley guinea pig; remark: listed apart in the source

CN(C)C(=O)Oc1ccc[n+](C)c1 [PB, pyridostigmine bromide]
peak inhibition time (AChE [1]): about 30 minutes

CCCC(=O)SCC[N+](C)(C)C.[I-] [BTC, butyrylthiocholine iodide]
AChE Coefficient (sensitivity coefficient) Value (AChE [2]): 82 mAbs/min/[blood]
BChE Coefficient (sensitivity coefficient) Value (BChE [3]): 1466 mAbs/min/[blood]
BChE Coefficient (sensitivity coefficient) Value (BChE [4]): 62 mAbs/min/[blood]
AChE Coefficient (sensitivity coefficient) Value (AChE [5]): 0 mAbs/min/[blood]
BChE Coefficient (sensitivity coefficient) Value (BChE [6]): 661 mAbs/min/[blood]
AChE Coefficient (sensitivity coefficient) Value (AChE [7]): 0 mAbs/min/[blood]
AChE Coefficient (sensitivity coefficient) Value (AChE [8]): 0 mAbs/min/[blood]

C/C=C1\[C@H]2C=C(C)C[C@]1(N)c1ccc(=O)[nH]c1C2 (racemic) [rac Hup-A, Racemic huperzine-A]
BChE Average (BChE [9]): 0.907 U/mL and 0.930 U/mL and 0.913 U/mL and 0.929 U/mL and 0.912 U/mL and 0.892 U/mL

CCC(=O)SCC[N+](C)(C)C.[I-] [PTC, propionylthiocholine iodide]
AChE Coefficient (sensitivity coefficient) Value (AChE [2]): 1071 mAbs/min/[blood]
BChE Coefficient (sensitivity coefficient) Value (BChE [3]): 1417 mAbs/min/[blood]
BChE Coefficient (sensitivity coefficient) Value (BChE [4]): 134 mAbs/min/[blood]
AChE Coefficient (sensitivity coefficient) Value (AChE [5]): 844 mAbs/min/[blood]
BChE Coefficient (sensitivity coefficient) Value (BChE [6]): 514 mAbs/min/[blood]
AChE Coefficient (sensitivity coefficient) Value (AChE [7]): 158 mAbs/min/[blood]

C[n+]1ccccc1C=NO [2-PAM]
effect on BChE (BChE [10]): relatively unaffected
effect on AChE (AChE [11]): inhibited
